The values below come from US8575170B2, “Flurbiprofen analogs and methods of use in treating cancer” (The Regents of the Unversity of Colorado, a body corporate, priority 2010, dated 2013).

The test system of one test is H1435a. Nature of the test: MTT cell viability, H1435a. Format: cell-based. The following applies: 96 h; Adenocarcinoma lung cell line H1435a; 4 days incubation. On the procedure: (§1) The ability of the flurbiprofen analog compounds of the invention to inhibit cancer cell growth and survival (viability) in a variety of cancer lines was examined in a standard MTT assay for cell viability, as detailed in Example 2.
(§2) The studies reported in Tables 1-3 above were carried out by incubating the cells in the test compound for four days, under standard cell-culture conditions, and measuring cell survival on day 5 (see Example 2).
(§3) Cell growth and survival following treatment with N—[(S)-2-Fluoro-α-methyl-4-biphenylacetyl]-[L-(4-phenylphenyl)alanine]-N-(2,2,6,6-tetramethyl-4-piperidinyl)amide (GCBH-110=B1031; (S)-Fmba-L-Bip-Atmp) were measured by a rapid colorimetric assay based on the tetrazolium salt MTT (3-(4,5-dimethylthiazol-2-yl)-2,5-diphenyl tetrazolium bromide) (Mosmann, J. Immunol. Methods 65: 55-63, 1983, with minor modifications).
(§4) Briefly, approximately 1,000-5,000 cancer cells from 15 different cancer cells lines were plated in 100 μL of growth medium in 96-well flat-bottomed microtiter plates. Cells were incubated overnight to allow recovery. Compounds to be tested were added to the cells in triplicate in a range of concentrations and the cells were incubated at 37° C., 5% CO2, with 100% humidity. Control cells were treated in the same way without antagonists. […] Absorbance was immediately determined using a scanning multiwell plate reader.

The subject of another test is H1264. Nature of the test: MTT cell viability, H1264. It counts as cell-based. The note with it: 96 h; Adenosquamous lung cell line H1264; 4 days incubation. Here is the method:
as §1, §2, §3, §4

For a further test, the system named is H661. Nature of the test: MTT cell viability, H661. Format: cell-based. The note with it: Homo sapiens, NCI-H661, 96 h; Large Cell lung cell line H661; 4 days incubation. Here is the method: as §1, §2, §3, §4
The next test has as its system H719. Description: MTT cell viability, H719. Format: cell-based. The following applies: 96 h; SCLC lung cell line H719; 4 days incubation. Here is the method: as §1, §2, §3, §4
The subject of a further test is 1483. Description: MTT cell viability, 1483. Format: cell-based. The following applies: Head and neck cancer cell line 1483. On the procedure:
as §1
(§5) A similar study was conducted on 14 […] cancer cell lines, identified in Table 2.
as §3
(§6) Briefly, approximately 1,000-5,000 cancer cells from 15 different cancer cells lines were plated in 100 μL of growth medium in 96-well flat-bottomed microtiter plates. Cells were incubated overnight to allow recovery. Compounds to be tested were added to the cells in triplicate in a range of concentrations and the cells were incubated at 37° C., 5% CO2, with 100% humidity. Control cells were treated in the same way without antagonists. […] Plates were incubated for 4 days, allowing sufficient time for cell replication and compound-induced cell death to occur. […] Absorbance was immediately determined using a scanning multiwell plate reader. […]

For another test, the system named is MSK922. Description: MTT cell viability, MSK922. It counts as cell-based. The following applies: Head and neck cancer cell line MSK922. Here is the method:
as §1, §5, §3, §6

The subject of the next test is 1586. Description: MTT cell viability, 1586. It counts as cell-based. The note with it: Head and neck cancer cell line 1586. Here is the method:
as §1, §5, §3, §6

The next test relates to Panc-504. Description: MTT cell viability, Panc-504. The following applies: Pancreatic cancer cell, 96 h; Pancreatic cancer cells Panc-504; 4 days incubation. It counts as cell-based.
From the text: as §1
(§7) Similar results were obtained for the effect of the B1031 compound on the 14 pancreatic tumor cells lines shown in Table 3 below, where the dose dependent effect of the compound on survival of the pancreatic cancer cell lines is shown in FIG. 5.
as §2, §3
(§8) Briefly, approximately 1,000-5,000 cancer cells from 15 different cancer cells lines were plated in 100 μL of growth medium in 96-well flat-bottomed microtiter plates. Cells were incubated overnight to allow recovery. […] Absorbance was immediately determined using a scanning multiwell plate reader.

The next test deals with Panc-327. Description: MTT cell viability, Panc-327. It counts as cell-based. The note with it: Pancreatic cancer cell, 96 h; Pancreatic cancer cells Panc-327; 4 days incubation.
From the text: as §1, §7, §2, §3, §8

The subject of another test is Panc-1005. Nature of the test: MTT cell viability, Panc-1005. The note with it: Homo sapiens, Panc1005, 96 h; Pancreatic cancer cells Panc-1005; 4 days incubation. Format: cell-based.
From the text: as §1, §7, §2, §3, §8

The subject of a further test is HADF-2. Nature of the test: MTT cell viability, HADF-2. Format: cell-based. The following applies: Pancreatic cancer cell, 96 h; Pancreatic cancer cells HADF-2; 4 days incubation.
From the text: as §1, §7, §2, §3, §8

In the next test the test system is Panc-1. Nature of the test: MTT cell viability, Panc-1. It counts as cell-based. The note with it: Homo sapiens, 96 h; Pancreatic cancer cells Panc-1; 4 days incubation.
From the text: as §1, §7, §2, §3, §8

Another test has as its system SW1990. Description: MTT cell viability, SW1990. It counts as cell-based. The note with it: Homo sapiens, 96 h; Pancreatic cancer cells SW1990; 4 days incubation.
From the text: as §1, §7, §2, §3, §8

In test [1] the test system is pancreatic cancer cell lines. Nature of the test: MTT cell viability, panel of pancreatic cancer cell lines. It counts as cell-based.
From the text: as §1, §7, §3
Briefly, approximately 1,000-5,000 cancer cells from 15 different cancer cells lines were plated in 100 μL of growth medium in 96-well flat-bottomed microtiter plates. Cells were incubated overnight to allow recovery. Compounds to be tested were added to the cells in triplicate in a range of concentrations and the cells were incubated at 37° C., 5% CO2, with 100% humidity. […] Absorbance was immediately determined using a scanning multiwell plate reader.

In a further test the test system is H2122 cells. Description: Cell cycle phase distribution in H2122 cells. The following applies: six concentrations, 24, 48 and 72 hours, FIG. 10. Format: cell-based. On the procedure:
FIG. 10 is a plot showing the percentages of H122 cells G1, S, and G2 cycle at […], and 72 hours, as a function of B1031 concentration in the cell medium.
FIG. 10 provides an explanation of the time-dependent IC50 values observed in FIG. 7, and insight into the mechanism by which the compounds of the invention exert their anti-cancer effect. In the study shown in FIG. 10, H2122 cells were cultured in the presence of one of the six concentrations of the B1031 compound, as indicated in the figure. At time periods 24, 48, and 72 hours after incubation with the compound, cells from each of the six cultures (having increasing concentrations of the compound), were examined for percent cells in G1, S, or G2 cell phase.

Test [2] concerns H2122 lung carcinoma solid tumor xenograft. Description: H2122 lung carcinoma xenograft in nude mice. The following applies: 5 mg/kg daily intraperitoneal, from day 7 after implantation, over the 25 days of treatment, FIG. 11. It counts as in vivo, athymic nude mice. Here is the method: The efficacy of the treatment method was examined for both lung carcinoma-cell tumors and pancreatic-cell tumors implanted in athymic mice, according to the method detailed in Example 3. In the first study, mice injected with lung-carcinoma cells were treated, seven days after cancer-cell implantation, by daily injection of 5 mg/kg body weight of one of three different flurbiprofen analog compounds: B1005 (GCBH 104); B1020 (GCBH 108) and B1031 (GCBH 110). Tumor size was measured by calipers at the days indicated in FIG. 11, with final tumor weight and volume being determined by extracting the tumor from the sacrificed animals.
Compounds having high in vitro cytotoxic activity were tested against implanted tumors in vivo. In one study, athymic nude mice were implanted subcutaneously with suspensions of approximately 2 million H2122 lung carcinoma cells, in Matrigel suspension. On the seventh day after tumor implantation, groups of 5 mice bearing implants were injected intraperitoneally with the compounds being tested at 5 mg/kg/every day; control animals were injected with an equal volume of isotonic saline. […] Tumor size was measured with a caliper three times per week. Tumor volume was calculated by the formula: Volume (cc)=3.14×(length)×(width)^2/6
At autopsy, tumors were removed and weighed. Tumor inhibition was calculated on both weight and measurement basis.

Read-outs that look alike come from different tables or passages of the source.

With `C[C@H](C(=O)N[C@@H](Cc1ccc(-c2ccccc2)cc1)C(=O)NC1CC(C)(C)NC(C)(C)C1)c1ccc(-c2ccccc2)c(F)c1` [GCBH-110, N—[(S)-2-Fluoro-α-methyl-4-biphenylacetyl]-[L-(4-phenylphenyl)alanine]-N-(2,2,6,6-tetramethyl-4-piperidinyl)amide], the IC50 in the test on H1435a is 110 nM; in the test with H1264, 630 nM; in the test with H661, 350 nM; in the test with H719 it was 1080 nM; with 1483 it was 300 nM; in the test with MSK922, 410 nM. Further, the IC50 in the test with 1586 was 1500 nM; with Panc-504, 160 nM; with Panc-327, 670 nM; with Panc-1005, 700 nM; with HADF-2, 700 nM; with Panc-1, 810 nM. Moreover, the IC50 with SW1990 was 1500 nM; in test [1] (majority of the pancreatic cell lines, read-out: IC50, majority of the cell lines), at most 700 nM; in test [1] (span over 14 pancreatic tumor cell lines, Table 3, FIG. 5, read-out: IC50 values), 160 to 3100 nM. In the test with H2122 cells, the “percent cells in G1, S, or G2 cell phase” value was “marked shift of the cell populations away from the S and G2 phases to the G1 phase”. Besides, the “inhibition of growth of the lung carcinoma cell line H2122 tumor” value in [2] is listed as 76%.
